From US10258042B2, “Substituted pyrazolylpyrazole derivative and use of same as herbicide” (KYOYU AGRI CO., LTD., priority 2015, dated 2019)

What was measured:
Assay type in all cases: in vivo
Chenopodium album [1] = experiment: Weed foliar treatment test (Test Example 3); settings: foliar spray at 1.0 to 2.0 leaf stage of Digitaria ciliaris, 3 weeks, 25° C.; for herbicidal efficacy, Chenopodium alubum: 5 g a.i./10a; for herbicidal efficacy, Chenopodium album: 10 g a.i./10a
Description: (§1) Soil was filled into a 1/6000 are pot followed by seeding with Digitaria ciliaris, Chenopodium album and Amaranthus retroflexus, covering with soil, and cultivating in a glass greenhouse at an average atmospheric temperature of 25° C.
(§2) Wettable powders of Target Compound (I) shown in Table 1 prepared in compliance with the preparation examples were diluted with water to the prescribed amount of chemical and uniformly sprayed onto the weeds using 150 liters of sprayed water per 10 are when Digitaria ciliaris had grown to the 1.0 to 2.0 leaf stage.
(§3) After treating for 3 weeks in a glass greenhouse at an average atmospheric temperature of 25° C., the herbicidal efficacy thereof was investigated.
(§4) Evaluation of herbicidal efficacy was carried out in the same manner as the above-mentioned Test Example 1.

Digitaria ciliaris [2] = experiment: Weed foliar treatment test (Test Example 3); settings: foliar spray at 1.0 to 2.0 leaf stage of Digitaria ciliaris, 3 weeks, 25° C.
Description: as §1, §2, §3, §4

Amaranthus retroflexus [3] = experiment: Weed foliar treatment test (Test Example 3); settings: foliar spray at 1.0 to 2.0 leaf stage of Digitaria ciliaris, 3 weeks, 25° C.
Description: as §1, §2, §3, §4

Oryza sativa = experiment: Paddy herbicidal activity test, phytotoxicity to transplanted rice; settings: rice plants in the 2.0 leaf stage transplanted, 30 days, 30° C.
Description: (§5) Rice paddy soil was filled into a 1/10000 are pot followed by the addition of suitable amounts of water and chemical fertilizer, kneading, seeding with Echinochloa crus-galli, Monochoria vaginalis and Scirpus juncoides and maintaining in an irrigated state at a water depth of 3 cm.
(§6) Wettable powders of Target Compound (I) shown in Table 1 prepared in compliance with the preparation examples were diluted with a suitable amount of water, rice plants in the 2.0 leaf stage were transplanted during 3.5 leaf stage of Echinochloa crus-galli, and treated by dropping in chemical in the prescribed amount per 10 are using a pipette.
(§7) After treating for 30 days in a glass greenhouse at an average atmospheric temperature of 30° C., the herbicidal efficacy thereof was investigated.
(§8) Evaluation of herbicidal efficacy was carried out by comparing growth inhibition rate (%) with an untreated group, while evaluation of phytotoxicity was carried out by comparing growth inhibition rate (%) with the state of a complete eradication group, and were evaluated at 11 levels indicated below.

Monochoria vaginalis = experiment: Paddy herbicidal activity test; settings: irrigated paddy pot, 30 days, 30° C.
Description: as §5, §6, §7, §8

Echinochloa crus-galli = experiment: Paddy herbicidal activity test; settings: irrigated paddy pot, treated at 3.5 leaf stage of Echinochloa crus-galli, 30 days, 30° C.
Description: as §5, §6, §7, §8

Scirpus juncoides = experiment: Paddy herbicidal activity test; settings: irrigated paddy pot, 30 days, 30° C.
Description: as §5, §6, §7, §8

Galinsoga parviflora = experiment: Weed foliar treatment test (Test Example 4, higher leaf stage); settings: 10 g a.i./10a; foliar spray at 4.0 to 5.0 leaf stage of Digitaria ciliaris; 20 days, 25° C.
Description: (§9) Field soil was filled into a 1/4500 are pot followed by seeding with Digitaria ciliaris and Galinsoga parviflora, covering with soil and cultivating in a glass greenhouse at an average atmospheric temperature of 25° C.
as §2, with “100” for “150”, “4.0” for “1.0”, “5.0” for “2.0”, “stage (plant height: 10 cm to 15 cm).” for “stage.”
(§10) After treating for 20 days in a glass greenhouse at an average atmospheric temperature of 25° C., the herbicidal efficacy thereof was investigated.
as §4

Digitaria ciliaris [4] = experiment: as above; settings: 10 g a.i./10a; foliar spray at 4.0 to 5.0 leaf stage of Digitaria ciliaris (plant height 10 cm to 15 cm); 20 days, 25° C.
Description: as §9
as §2, with “100” for “150”, “4.0” for “1.0”, “5.0” for “2.0”, “stage (plant height: 10 cm to 15 cm).” for “stage.”
as §10, §4

Chenopodium album [5] = experiment: Farming soil treatment test; settings: soil surface spray prior to weed growth, 30 days, 30° C.
Description: (§11) Field soil was filled into a 1/6000 are pot followed by seeding with Digitaria ciliaris, Chenopodium album and Amaranthus retroflexus and covering with soil.
(§12) Wettable powders of compounds of formula (I) shown in Table 1 prepared in compliance with the preparation examples were diluted with water to the prescribed amount of chemical and uniformly sprayed onto each soil surface layer using 100 liters of sprayed water per 10 are prior to weed growth following seeding.
as §7
(§13) Evaluation of herbicidal efficacy was carried out in the same manner as the above-mentioned Test Example 1,

Digitaria ciliaris [6] = experiment: Farming soil treatment test; settings: soil surface spray prior to weed growth, 30 days, 30° C.
Description: as §11, §12, §7, §13

Amaranthus retroflexus [7] = experiment: Farming soil treatment test; settings: soil surface spray prior to weed growth, 30 days, 30° C.
Description: as §11, §12, §7, §13

| Structure (SMILES) | herbicidal efficacy, Chenopodium alubum (Chenopodium album [1]) | herbicidal efficacy, Chenopodium album (Chenopodium album [1]) | herbicidal efficacy, Digitaria ciliaris (Digitaria ciliaris [2]; 5 g a.i./10a) | herbicidal efficacy, Digitaria ciliaris (Digitaria ciliaris [2]; 10 g a.i./10a) | herbicidal efficacy, Amaranthus retroflexus (Amaranthus retroflexus [3]; 5 g a.i./10a) | herbicidal efficacy, Amaranthus retroflexus (Amaranthus retroflexus [3]; 10 g a.i./10a) | phytotoxicity, Oryza sativa (Oryza sativa; 1 g a.i./10a) | phytotoxicity, Oryza sativa (Oryza sativa; 5 g a.i./10a) | herbicidal efficacy, Monochoria vaginalis (Monochoria vaginalis; 1 g a.i./10a) | herbicidal efficacy, Monochoria vaginalis (Monochoria vaginalis; 5 g a.i./10a) | herbicidal efficacy, Echinochloa crus-galli (Echinochloa crus-galli; 1 g a.i./10a) | herbicidal efficacy, Echinochloa crus-galli (Echinochloa crus-galli; 5 g a.i./10a) | herbicidal efficacy, Scirpus juncoides (Scirpus juncoides; 1 g a.i./10a) | herbicidal efficacy, Scirpus juncoides (Scirpus juncoides; 5 g a.i./10a) | herbicidal efficacy, Galinsoga parviflora (Galinsoga parviflora) | herbicidal efficacy, Digitaria ciliaris (Digitaria ciliaris [4]) | herbicidal efficacy, Chenopodium album (Chenopodium album [5]; 5 g a.i./10a) | herbicidal efficacy, Chenopodium album (Chenopodium album [5]; 10 g a.i./10a) | herbicidal efficacy, Digitaria ciliaris (Digitaria ciliaris [6]; 5 g a.i./10a) | herbicidal efficacy, Digitaria ciliaris (Digitaria ciliaris [6]; 10 g a.i./10a) | also measured |
| --- | --- | --- | --- | --- | --- | --- | --- | --- | --- | --- | --- | --- | --- | --- | --- | --- | --- | --- | --- | --- | --- |
| CCCCC(=O)Nc1c(C#N)cnn1-c1nn2c(c1Cl)CCCC2 [Control agent 4.191, reference compound] | 3 (3: 30% to less than 40%) | 2 (2: 20% to less than 30%) | 0 (0 (exponent): 0% to less than 10% (growth inhibition rate)) | 0 (0 (exponent): 0% to less than 10% (growth inhibition rate)) | 4 (4: 40% to less than 50%) | 5 (5: 50% to less than 60%) | 1 (1: 10% to less than 20%) | 1 (1: 10% to less than 20%) | 2 (2: 20% to less than 30%) | 2 (2: 20% to less than 30%) | 2 (2: 20% to less than 30%) | 2 (2: 20% to less than 30%) | 0 (0 (exponent): 0% to less than 10% (growth inhibition rate)) | 1 (1: 10% to less than 20%) | 3 (3: 30% to less than 40%) | 0 (0 (exponent): 0% to less than 10% (growth inhibition rate)) | 3 (3: 30% to less than 40%) | 3 (3: 30% to less than 40%) | 0 (0 (exponent): 0% to less than 10% (growth inhibition rate)) | 0 (0 (exponent): 0% to less than 10% (growth inhibition rate)) | herbicidal efficacy, Amaranthus retroflexus (Amaranthus retroflexus [7]; 5 g a.i./10a): 2 (2: 20% to less than 30%); herbicidal efficacy, Amaranthus retroflexus (Amaranthus retroflexus [7]; 10 g a.i./10a): 3 (3: 30% to less than 40%) |
| N#Cc1cnn(-c2nn3c(c2Cl)CCCC3)c1NC(=O)CCCCl [Control agent 1.37, reference compound] | – | – | – | – | – | – | 2 (2: 20% to less than 30%) | 2 (2: 20% to less than 30%) | – | – | – | – | – | – | – | – | – | – | – | – | – |
| CCCC(=O)Nc1c(C#N)cnn1-c1nn2c(c1Cl)CCCC2 [Control agent 4.188, reference compound] | 3 (3: 30% to less than 40%) | 5 (5: 50% to less than 60%) | 1 (1: 10% to less than 20%) | 2 (2: 20% to less than 30%) | 4 (4: 40% to less than 50%) | 5 (5: 50% to less than 60%) | 2 (2: 20% to less than 30%) | 2 (2: 20% to less than 30%) | 3 (3: 30% to less than 40%) | 3 (3: 30% to less than 40%) | 2 (2: 20% to less than 30%) | 3 (3: 30% to less than 40%) | 0 (0 (exponent): 0% to less than 10% (growth inhibition rate)) | 1 (1: 10% to less than 20%) | 4 (4: 40% to less than 50%) | 0 (0 (exponent): 0% to less than 10% (growth inhibition rate)) | 2 (2: 20% to less than 30%) | 3 (3: 30% to less than 40%) | 0 (0 (exponent): 0% to less than 10% (growth inhibition rate)) | 1 (1: 10% to less than 20%) | herbicidal efficacy, Amaranthus retroflexus (Amaranthus retroflexus [7]; 5 g a.i./10a): 4 (4: 40% to less than 50%); herbicidal efficacy, Amaranthus retroflexus (Amaranthus retroflexus [7]; 10 g a.i./10a): 4 (4: 40% to less than 50%) |
